Starred links: 1 amine or outer side, 2 acyl side, 3 side chain; linkers in the order of their positions; H or OH if unused. Positions of bridges follow the written chain, without caps; N, C: chain ends. Non-standard residues stand in square brackets, D forms with d. Residues, ends and D or L forms follow the SMILES beside them. Hexanoyl(3S-OH,4R-NH2,5-Me) = CC(C)[C@@H](N[*:1])[C@@H](O)CC(=O)[*:2]; NMeY = CN[C@@H](Cc1ccc(O)cc1)C(=O)O; dNMeL = CN[C@H](CC(C)C)C(=O)O; Hiv = CC(C)[C@H](O)C(=O)O; Lac = C[C@H](O)C(=O)O
Key:
LOVO = test: SRB colorimetric cell growth inhibition assay, LOVO; conditions: for GI50 / CC50: Homo sapiens, LoVo, 48 h; for CC50: read-out: LC50; for TGI: LOVO cells, total growth inhibition, SRB, 48 hours exposure
Method: (§1) This form of assay employs 96 well cell culture microplates of […] diameter (Faircloth, 1988; Mosmann, 1983). Most of the cell lines are obtained from American Type Culture Collection (ATCC) derived from different human cancer types.
(§2) Cells are maintained in RPMI 1640 10% FBS, supplemented with 0.1 g/l penicillin and 0.1 g/l streptomycin sulfate and then incubated at 37° C., 5% CO2 and 98% humidity. For the experiments, cells were harvested from subconfluent cultures using trypsin and resuspended in fresh medium before plating.
(§3) Cells are seeded in 96 well microtiter plates, at 5×10^3 cells per well in aliquots of 195 μl medium, and they are allowed to attach to the plate surface by growing in drug free medium for 18 hours. Afterward, samples are added in aliquots of 5 μl in a ranging from 10 to 10-8 μg/ml, dissolved in DMSO/EtOH/PBS (0.5:0.5:99). After 48 hours exposure, the antitumor effect are measured by the SRB methodology: cells are fixed by adding 50 μl of cold 50% (wt/vol) trichloroacetic acid (TCA) and incubated for 60 minutes at 4° C.
(§4) Plates are washed with deionised water and dried. One hundred μl of SRB solution (0.4% wt/vol in 1% acetic acid) is added to each microtiter well and incubated for 10 minutes at room temperature. Unbound SRB is removed by washing with 1% acetic acid. Plates are air dried and bound stain is solubilized with Tris buffer. Optical densities are read on a automated spectrophotometric plate reader at a single wavelength of 490 nm.
(§5) The values for mean+/−SD of data from triplicate wells are calculated.
(§6) Some parameters for cellular responses can be calculated: GI=growth inhibition, TGI=total growth inhibition (cytostatic effect) and LC=cell killing (cytotoxic effect).

DU145 = test: SRB colorimetric cell growth inhibition assay, DU145; conditions: for TGI: DU145 cells, total growth inhibition, SRB, 48 hours exposure; for GI50 / CC50: Homo sapiens, DU-145, 48 h; for CC50: read-out: LC50
Method: as §1, §2, §3, §4, §5, §6

HELA-APL = test: SRB colorimetric cell growth inhibition assay, HELA-APL; conditions: for TGI: HELA-APL cells, total growth inhibition, SRB, 48 hours exposure; for GI50 / CC50: Homo sapiens, 48 h; for CC50: read-out: LC50
Method: as §1, §2, §3, §4, §5, §6

LN-caP = test: SRB colorimetric cell growth inhibition assay, LN-caP; conditions: for GI50 / CC50: Homo sapiens, LNCaP, 48 h; for CC50: read-out: LC50; for TGI: LN-caP cells, total growth inhibition, SRB, 48 hours exposure
Method: as §1, §2, §3, §4, §5, §6

PANC1 = test: SRB colorimetric cell growth inhibition assay, PANC1; conditions: for GI50 / CC50: Homo sapiens, PANC-1, 48 h; for CC50: read-out: LC50; for TGI: PANC1 cells, total growth inhibition, SRB, 48 hours exposure
Method: as §1, §2, §3, §4, §5, §6

HT29 = test: SRB colorimetric cell growth inhibition assay, HT29; conditions: for TGI: HT29 cells, total growth inhibition, SRB, 48 hours exposure; for GI50 / CC50: Homo sapiens, HT-29, 48 h; for CC50: read-out: LC50
Method: as §1, §2, §3, §4, §5, §6

IGROV = test: SRB colorimetric cell growth inhibition assay, IGROV; conditions: for GI50 / CC50: Homo sapiens, IGROV, 48 h; for CC50: read-out: LC50; for TGI: IGROV cells, total growth inhibition, SRB, 48 hours exposure
Method: as §1, §2, §3, §4, §5, §6

A549 = test: SRB colorimetric cell growth inhibition assay, A549; conditions: for TGI: A549 cells, total growth inhibition, SRB, 48 hours exposure; for GI50 / CC50: Homo sapiens, A549, 48 h; for CC50: read-out: LC50
Method: as §1, §2, §3, §4, §5, §6

SK-BR3 = test: SRB colorimetric cell growth inhibition assay, SK-BR3; conditions: for GI50 / CC50: Homo sapiens, SK-BR-3, 48 h; for CC50: read-out: LC50; for TGI: SK-BR3 cells, total growth inhibition, SRB, 48 hours exposure
Method: as §1, §2, §3, §4, §5, §6

K562 = test: SRB colorimetric cell growth inhibition assay, K562; conditions: for GI50 / CC50: Homo sapiens, K562, 48 h; for CC50: read-out: LC50; for TGI: K562 cells, total growth inhibition, SRB, 48 hours exposure
Method: as §1, §2, §3, §4, §5, §6

SK-MEL-28 = test: SRB colorimetric cell growth inhibition assay, SK-MEL-28; conditions: for GI50 / CC50: Homo sapiens, SK-MEL-28, 48 h; for CC50: read-out: LC50; for TGI: SK-MEL-28 cells, total growth inhibition, SRB, 48 hours exposure
Method: as §1, §2, §3, §4, §5, §6

HELA = test: SRB colorimetric cell growth inhibition assay, HELA; conditions: for TGI: HELA cells, total growth inhibition, SRB, 48 hours exposure; for GI50 / CC50: Homo sapiens, HeLa, 48 h; for CC50: read-out: LC50
Method: as §1, §2, §3, §4, §5, §6

LOVO-DOX = test: SRB colorimetric cell growth inhibition assay, LOVO-DOX; conditions: for GI50 / CC50: Homo sapiens, 48 h; for CC50: read-out: LC50; for TGI: LOVO-DOX cells, total growth inhibition, SRB, 48 hours exposure
Method: as §1, §2, §3, §4, §5, §6

IGROV-ET = test: SRB colorimetric cell growth inhibition assay, IGROV-ET; conditions: for GI50 / CC50: Homo sapiens, 48 h; for CC50: read-out: LC50; for TGI: IGROV-ET cells, total growth inhibition, SRB, 48 hours exposure
Method: as §1, §2, §3, §4, §5, §6

Molecule `COc1ccc(C[C@H]2C(=O)OC[C@H](NC(=O)[C@@H](CC(C)C)N(C)C(=O)[C@@H]3CCCN3C(=O)[C@H](C)O)C(=O)N[C@H](C(C)C)[C@@H](O)CC(=O)O[C@@H](C(C)C)C(=O)N[C@@H](CC(C)C)C(=O)N3CCC[C@H]3C(=O)N2C)cc1` [Compound 62, [N-Ser^6]-Tamandarin B] (H-[Lac]P[dNMeL]S[Hexanoyl(3S-OH,4R-NH2,5-Me)][Hiv]LP[NMeY](Me); ester 4-C) has a GI50 (LOVO) of 38.9 nM, a CC50 (LOVO) of 3.66 µM and a TGI (LOVO) of 2.31E−07 Molar. It also gave a TGI (DU145) of 2.49E−08 Molar, a GI50 (DU145) of 6.79 nM and a CC50 (DU145) of 82.6 nM. The TGI (HELA-APL) was 5.41E−06 Molar, the GI50 (HELA-APL) was 411 nM and the CC50 (HELA-APL) was no less than 9.73 µM. For the same molecule, the GI50 (LN-caP) was 2.71 nM, the CC50 (LN-caP) was 58.4 nM and the TGI (LN-caP) was 7.24E−09 Molar. It also gave a GI50 (PANC1) of 34.9 nM, a CC50 (PANC1) of no less than 9.73 µM and a TGI (PANC1) of 8.82E−07 Molar. For the same molecule, the TGI (HT29) was 2.03E−07 Molar, the GI50 (HT29) was 23.7 nM and the CC50 (HT29) was no less than 9.73 µM. It also gave a GI50 (IGROV) of 1990 nM, a CC50 (IGROV) of 9.84 µM and a TGI (IGROV) of 5.29E−06 Molar. It also gave a TGI (A549) of 3.51E−07 Molar, a GI50 (A549) of 51.5 nM and a CC50 (A549) of 2900 nM. For the same molecule, the GI50 (SK-BR3) was 3.74 nM, the CC50 (SK-BR3) was no less than 9.73 µM and the TGI (SK-BR3) was 4.05E−08 Molar. For the same molecule, the GI50 (K562) was 78 nM, the CC50 (K562) was 2390 nM and the TGI (K562) was 3.03E−07 Molar. The GI50 (SK-MEL-28) was 16.6 nM, the CC50 (SK-MEL-28) was 0.675 µM and the TGI (SK-MEL-28) was 8.24E−08 Molar. The TGI (HELA) was 2.61E−08 Molar, the GI50 (HELA) was 3.76 nM and the CC50 (HELA) was 368 nM. The GI50 (LOVO-DOX) was 2390 nM, the CC50 (LOVO-DOX) was no less than 9.73 µM and the TGI (LOVO-DOX) was 8.40E−06 Molar. The GI50 (IGROV-ET) was 0.456 µM, the CC50 (IGROV-ET) was 6.95 µM and the TGI (IGROV-ET) was 1.90E−06 Molar.

`COc1ccc(C[C@H]2C(=O)O[C@H](C)[C@H](NC(=O)[C@@H](CC(C)C)N(C)C(=O)[C@@H]3CCCN3C(=O)[C@H](C)O)C(=O)N[C@H](C(C)C)[C@@H](O)CC(=O)O[C@@H](C(C)C)C(=O)N[C@@H](CC(C)C)C(=O)N[C@@H](C)C(=O)N2C)cc1` [Compound 75, [N-Ala^4]-Tamandarin B] (H-[Lac]P[dNMeL]T[Hexanoyl(3S-OH,4R-NH2,5-Me)][Hiv]LA[NMeY](Me); ester 4-C) gave a GI50 (LOVO) of 3550 nM, a CC50 (LOVO) of no less than 9.84 µM and a TGI (LOVO) of 9.84E−06 Molar. For the same molecule, the TGI (DU145) was 4.95E−06 Molar, the GI50 (DU145) was 1810 nM and the CC50 (DU145) was no less than 9840 nM. The TGI (HELA-APL) was 9.84E−06 Molar, the GI50 (HELA-APL) was no less than 9840 nM and the CC50 (HELA-APL) was no less than 9.84 µM. For the same molecule, the GI50 (LN-caP) was 548 nM, the CC50 (LN-caP) was no less than 9840 nM and the TGI (LN-caP) was 2.97E−06 Molar. The GI50 (PANC1) was 3750 nM, the CC50 (PANC1) was no less than 9.84 µM and the TGI (PANC1) was 9.84E−06 Molar. The TGI (HT29) was 9.84E−06 Molar, the GI50 (HT29) was 4220 nM and the CC50 (HT29) was no less than 9.84 µM. For the same molecule, the GI50 (IGROV) was 1990 nM, the CC50 (IGROV) was no less than 9.84 µM and the TGI (IGROV) was 5.29E−06 Molar. For the same molecule, the TGI (A549) was 9.84E−06 Molar, the GI50 (A549) was 5850 nM and the CC50 (A549) was no less than 9840 nM. For the same molecule, the GI50 (SK-BR3) was 789 nM, the CC50 (SK-BR3) was no less than 9.84 µM and the TGI (SK-BR3) was 3.39E−06 Molar. For the same molecule, the GI50 (K562) was 5870 nM, the CC50 (K562) was no less than 9840 nM and the TGI (K562) was 9.46E−06 Molar. It also gave a GI50 (SK-MEL-28) of 1500 nM, a CC50 (SK-MEL-28) of 8 µM and a TGI (SK-MEL-28) of 3.46E−06 Molar. It also gave a TGI (HELA) of 3.60E−06 Molar, a GI50 (HELA) of 1180 nM and a CC50 (HELA) of no less than 9840 nM. It also gave a GI50 (LOVO-DOX) of no less than 9840 nM, a CC50 (LOVO-DOX) of no less than 9.84 µM and a TGI (LOVO-DOX) of 9.84E−06 Molar. The GI50 (IGROV-ET) was 6.86 µM, the CC50 (IGROV-ET) was no less than 9.84 µM and the TGI (IGROV-ET) was 9.84E−06 Molar.

From US20070149446A1, “Tamandarin analogs and fragments thereof and methods of making and using” (The Trustees of the University of Pennsylvania Center for …, priority 2003, published 2007)
